Results from patent US9877956B2, “Antiviral compounds and methods of use thereof” (Trana Discovery, Inc., priority 2014, dated 2018).
Values after ≈ are worked out from the molar mass of the structure shown. Values joined by “and” are separate entries in the source; they are usually repeats but may differ in a detail not shown here. Identical values can stand only once.

Key:
Format in all cases: cell-based
HUMAN PBMCS = test: Cytotoxicity in human PBMCs (XTT); settings: for TOXICITY VALUES (XTT - O.D. @ 450/650 nm), SAMPLE: individual samples, listed as Trana 156
Experimental: (§1) In these studies, PHA-P stimulated PBMCs from three donors were pooled together and re-suspended in fresh tissue culture medium at 1×10^6 cells/mL and plated in the interior wells of a 96 well round bottom microplate at 50µl/well. A 100µL volume of 9 concentrations of compound serially diluted were transferred to the round-bottom 96 well plate containing the cells in triplicate. Fifty microliters (µL) of HIV-1 at a pre-determined dilution was added. Each plate contained cell control wells and virus control wells in parallel with the experimental wells. After 7 days in culture, efficacy was evaluated by measuring the reverse transcriptase in the culture supernatants and the cells were stained with the tetrazolium dye XTT to evaluate cytotoxicity.

[1] = Toxicity in PBMC (Cell Titer 96); settings: human, peripheral blood mononuclear cells (PBMC); PBMC, Cell Titer 96
Excerpt: (§2) These compounds were further screened for activity in HIV-1-infected peripheral blood mononuclear cells (PBMC). The data (experiments were repeated, so duplicates are shown) is summarized in the tables below, and also in FIGS. 4A-B and 5A-B.

PBMC = test: Toxicity in PBMC (Cell Titer 96); settings: for % CC: O.D. relative to cell control; for TOXICITY VALUES (Cell Titer 96 - O.D. @ 490/650 nm), SAMPLE: individual samples
Excerpt: as §2

HIV-1 92/HT/599 = HIV-1 92/HT/599 replication in human PBMCs, reverse transcriptase in culture supernatants (RLU); settings: for RLU (Relative Light Units), SAMPLE: individual samples, listed as Trana 156
Experimental: as §1

HIV-1/Ba-L = test: Inhibition of HIV-1 Ba-L replication in PBMC (RT values); settings: for % VC: RT relative to virus control; for RT Values (cpm), SAMPLE: individual samples
Experimental: as §2
The HIV strain was HIV-1/Ba-L. The titer was 0.1 μL/well.

[2] = Human immunodeficiency virus 1, BAL, PBMC, HIV-1 Ba-L in PBMC

## CC1(C)OC(=O)C(=Cc2ccc(I)o2)C(=O)O1 [HIT #156]
HUMAN PBMCS; 0.32 μg/ml
  % Cell Viability: 97.66%
  Cytotoxicity Test Values Mean OD @ 450/650 nm: 1.094 OD
  TOXICITY VALUES (XTT - O.D. @ 450/650 nm), SAMPLE: 1.0465 O.D. (2×) and 1.1893 O.D.
HUMAN PBMCS; 1 μg/ml
  % Cell Viability: 99.50%
  Cytotoxicity Test Values Mean OD @ 450/650 nm: 1.115 OD
  TOXICITY VALUES (XTT - O.D. @ 450/650 nm), SAMPLE: 1.1281 O.D. (2×) and 1.0879 O.D.
HUMAN PBMCS; 3.16 μg/ml
  % Cell Viability: 87.52%
  Cytotoxicity Test Values Mean OD @ 450/650 nm: 0.980 OD
  TOXICITY VALUES (XTT - O.D. @ 450/650 nm), SAMPLE: 0.9762 O.D. (2×) and 0.9889 O.D.
HUMAN PBMCS; 9.99 μg/ml
  % Cell Viability: 89.00%
  Cytotoxicity Test Values Mean OD @ 450/650 nm: 0.997 OD
  TOXICITY VALUES (XTT - O.D. @ 450/650 nm), SAMPLE: 1.1309 O.D. (2×) and 0.7293 O.D.
HUMAN PBMCS; 31.6 μg/ml
  % Cell Viability: 12.90%
  Cytotoxicity Test Values Mean OD @ 450/650 nm: 0.145 OD
  TOXICITY VALUES (XTT - O.D. @ 450/650 nm), SAMPLE: 0.1469 O.D. (2×) and 0.1399 O.D.
HUMAN PBMCS; 100 μg/ml
  % Cell Viability: 14.76%
  Cytotoxicity Test Values Mean OD @ 450/650 nm: 0.165 OD
  TOXICITY VALUES (XTT - O.D. @ 450/650 nm), SAMPLE: 0.1657 O.D. (2×) and 0.1646 O.D.
HUMAN PBMCS; human PBMCs, XTT
  TC 25%: 12.3 µg/mL (≈ 35.3 µM)
  TC50 (TC 50%): 18.0 µg/mL (≈ 51.7 µM)
  TC 95%: <100 µg/mL
[1]
  CC50: > 100 µM
PBMC; 0.01 μM
  % CC: 110.7% and 108.3%
  TOXICITY VALUES (Cell Titer 96 - O.D. @ 490/650 nm), SAMPLE: 2.344 O.D. and 1.718 O.D. and 1.852 O.D. and 0.687 O.D. and 1.030 O.D. and 0.777 O.D.
PBMC; 0.03 μM
  % CC: 111.8% and 118.7%
  TOXICITY VALUES (Cell Titer 96 - O.D. @ 490/650 nm), SAMPLE: 2.336 O.D. and 1.807 O.D. and 1.831 O.D. and 0.821 O.D. and 1.115 O.D. and 0.798 O.D.
PBMC; 0.10 μM
  TOXICITY VALUES (Cell Titer 96 - O.D. @ 490/650 nm), MEAN: 1.952 O.D. and 0.991 O.D.
  % CC: 109.6% and 129.1%
  TOXICITY VALUES (Cell Titer 96 - O.D. @ 490/650 nm), SAMPLE: 2.142 O.D. and 1.855 O.D. and 1.858 O.D. and 1.098 O.D. and 1.053 O.D. and 0.822 O.D.
PBMC; 0.32 μM
  TOXICITY VALUES (Cell Titer 96 - O.D. @ 490/650 nm), MEAN: 1.937 O.D. and 1.031 O.D.
  % CC: 108.8% and 134.3%
  TOXICITY VALUES (Cell Titer 96 - O.D. @ 490/650 nm), SAMPLE: 2.234 O.D. and 1.808 O.D. and 1.768 O.D. and 1.094 O.D. and 1.234 O.D. and 0.765 O.D.
PBMC; 1.00 μM
  TOXICITY VALUES (Cell Titer 96 - O.D. @ 490/650 nm), MEAN: 1.882 O.D. and 1.010 O.D.
  % CC: 105.7% and 131.5%
  TOXICITY VALUES (Cell Titer 96 - O.D. @ 490/650 nm), SAMPLE: 2.065 O.D. and 1.819 O.D. and 1.762 O.D. and 1.173 O.D. and 1.067 O.D. and 0.789 O.D.
PBMC; 3.16 μM
  TOXICITY VALUES (Cell Titer 96 - O.D. @ 490/650 nm), MEAN: 1.914 O.D. and 1.060 O.D.
  % CC: 107.5% and 138.1%
  TOXICITY VALUES (Cell Titer 96 - O.D. @ 490/650 nm), SAMPLE: 2.179 O.D. and 1.770 O.D. and 1.792 O.D. and 1.161 O.D. and 1.175 O.D. and 0.845 O.D.
PBMC; 10.0 μM
  TOXICITY VALUES (Cell Titer 96 - O.D. @ 490/650 nm), MEAN: 1.924 O.D. and 0.976 O.D.
  % CC: 108.1% and 127.1%
  TOXICITY VALUES (Cell Titer 96 - O.D. @ 490/650 nm), SAMPLE: 2.172 O.D. and 1.791 O.D. and 1.810 O.D. and 1.001 O.D. and 0.993 O.D. and 0.934 O.D.
PBMC; 31.6 μM
  TOXICITY VALUES (Cell Titer 96 - O.D. @ 490/650 nm), MEAN: 1.891 O.D. and 0.979 O.D.
  % CC: 106.2% and 127.5%
  TOXICITY VALUES (Cell Titer 96 - O.D. @ 490/650 nm), SAMPLE: 2.078 O.D. and 1.741 O.D. and 1.855 O.D. and 0.997 O.D. and 1.014 O.D. and 0.926 O.D.
PBMC; 100 μM
  TOXICITY VALUES (Cell Titer 96 - O.D. @ 490/650 nm), MEAN: 1.613 O.D. and 0.847 O.D.
  % CC: 90.6% and 110.3%
  TOXICITY VALUES (Cell Titer 96 - O.D. @ 490/650 nm), SAMPLE: 1.651 O.D. and 1.594 O.D. and 0.795 O.D. and 0.787 O.D. and 0.978 O.D.
PBMC; PBMC, Cell Titer 96
  TC 90%: >100 µM
  TC 95%: >100 µM
HIV-1 92/HT/599; 0.32 μg/ml
  % Virus Control: 93.58%
  Antiviral Test Values Mean RLU: 18048.7 RLU
  RLU (Relative Light Units), SAMPLE: 9520.0 RLU and 22416.0 RLU and 22210.0 RLU
HIV-1 92/HT/599; 1 μg/ml
  % Virus Control: 110.39%
  Antiviral Test Values Mean RLU: 21291.7 RLU
  RLU (Relative Light Units), SAMPLE: 24338.0 RLU and 22848.0 RLU and 16689.0 RLU
HIV-1 92/HT/599; 3.16 μg/ml
  % Virus Control: 62.76%
  Antiviral Test Values Mean RLU: 12105.7 RLU
  RLU (Relative Light Units), SAMPLE: 9530.0 RLU and 14041.0 RLU and 12746.0 RLU
HIV-1 92/HT/599; 9.99 μg/ml
  % Virus Control: 4.15%
  Antiviral Test Values Mean RLU: 800.0 RLU
  RLU (Relative Light Units), SAMPLE: 138.0 RLU and 48.0 RLU and 2214.0 RLU
HIV-1 92/HT/599; 31.6 μg/ml
  % Virus Control: 0.21%
  Antiviral Test Values Mean RLU: 41.3 RLU
  RLU (Relative Light Units), SAMPLE: 46.0 RLU and 42.0 RLU and 36.0 RLU
HIV-1 92/HT/599; 100 μg/ml
  % Virus Control: 0.31%
  Antiviral Test Values Mean RLU: 60.7 RLU
  RLU (Relative Light Units), SAMPLE: 68.0 RLU and 62.0 RLU and 52.0 RLU
HIV-1 92/HT/599; HIV-1 92/HT/599, human PBMCs
  EC 25%: 2.35 µg/mL (≈ 6.75 µM)
  EC 95%: 9.82 µg/mL (≈ 28.2 µM)
HIV-1 92/HT/599; Human immunodeficiency virus 1, PBMC, read-out: EC50 (EC 50%), HIV-1 92/HT/599, human PBMCs
  EC50: 4.06 µg/mL (≈ 11.7 µM)
HIV-1 92/HT/599; TC/EC at 25%
  Therapeutic Index (TI) 25%: 5.23
HIV-1 92/HT/599; TC/EC at 50%
  Therapeutic Index (TI) 50%: 4.43
HIV-1 92/HT/599; TC/EC at 95%
  Therapeutic Index (TI) 95%: <10.18
HIV-1/Ba-L; 0.01 μM
  % VC: 112.3% and 106.4%
  RT Values (cpm), SAMPLE: 10480 cpm and 8884 cpm and 11894 cpm and 25643 cpm and 28270 cpm and 33067 cpm
HIV-1/Ba-L; 0.03 μM
  % VC: 84.0% and 99.4%
  RT Values (cpm), SAMPLE: 6505 cpm and 8625 cpm and 8243 cpm and 25769 cpm and 26494 cpm and 29027 cpm
HIV-1/Ba-L; 0.10 μM
  % VC: 68.9% and 122.1%
  RT Values (cpm), SAMPLE: 8064 cpm and 6238 cpm and 4871 cpm and 38847 cpm and 24637 cpm and 36331 cpm
HIV-1/Ba-L; 0.32 μM
  % VC: 81.3% and 86.3%
  RT Values (cpm), SAMPLE: 8253 cpm and 7009 cpm and 7376 cpm and 18012 cpm and 26707 cpm and 25800 cpm
HIV-1/Ba-L; 1.00 μM
  % VC: 64.5% and 85.3%
  RT Values (cpm), SAMPLE: 9732 cpm and 5647 cpm and 2583 cpm and 21965 cpm and 22751 cpm and 25042 cpm
HIV-1/Ba-L; 3.16 μM
  % VC: 27.9% and 43.2%
  RT Values (cpm), SAMPLE: 6132 cpm and 1058 cpm and 586 cpm and 6829 cpm and 9899 cpm and 18609 cpm
HIV-1/Ba-L; 10.0 μM
  % VC: 6.4% and 12.6%
  RT Values (cpm), SAMPLE: 635 cpm and 579 cpm and 575 cpm and 9437 cpm and 247 cpm and 585 cpm
HIV-1/Ba-L; 31.6 μM
  % VC: 1.6% and 2.3%
  RT Values (cpm), SAMPLE: 54 cpm and 94 cpm and 290 cpm and 120 cpm and 1345 cpm and 378 cpm
HIV-1/Ba-L; 100 μM
  % VC: 0.1% and 0.0%
  RT Values (cpm), SAMPLE: 18 cpm and 2 cpm and 0 cpm
HIV-1/Ba-L; HIV-1 Ba-L in PBMC
  IC50: 2.63 µM
  IC90: 13.3 µM
  IC 95%: 14.0 µM and 23.3 µM
HIV-1/Ba-L; [2]
  IC50: 1.58 µM
  IC90: 8.26 µM
HIV-1/Ba-L; TC/IC at 50%
  ANTIVIRAL INDEX (AI) 50%: >63.3 and >38.1
HIV-1/Ba-L; TC/IC at 90%
  ANTIVIRAL INDEX (AI) 90%: >12.1 and >7.51
HIV-1/Ba-L; TC/IC at 95%
  ANTIVIRAL INDEX (AI) 95%: >7.14 and >4.30
